Experimental data as given in patent publication US20130266557A1, “METHODS FOR TREATMENT OF A SARCOMA USING AN EPIMETABOLIC SHIFTER (COENZYME Q10)” (priority 2009, published 2013).

Key:
[1] = tested on: NCIES0808 cells; assay: Antibody microarray analysis of protein levels; assay type: cell-based, human
Procedure: NCIES0808 cells were received from SBH in T165 flasks (×55). […] The cell morphology was examined closely under a microscope and the cells were noted to appear healthy with no visual signs of contamination or intracellular inclusions.
A 500 μM Q10 stock was made using the same protocol outlined for the PCR arrays. The media was exchanged in every flask with 50 μM and 100 μM Q10 media being placed into the appropriate flasks. The cells were incubated for 3 hr and 6 hr in the Q10 formulated media and the cells were harvested. Each flask was washed with 10 ml of ice cold PBS and trypsinized with 5 ml of trypsin-EDTA. The cells were harvested by gentle pipetting and the enzyme action was stopped by addition of 30 ml complete media. The cells were centrifuged at 1200 rpm for 5 minutes and media was aspirated from the tube leaving behind the cell pellet for protein extraction.
The proteins were extracted from the cells as per page 2; sub-category IA; of the manufacture's Product Information Sheet, Sigma®, Panarama® Antibody Microarray EPRESS Profiler725, cat#: XP725. The protein material from the whole cell lysates was conjugated with Cy3 and Cy5 dyes, GE Healthcare, product #: 25-8009-86 Cy3 and 25-8009-87 Cy5 as per the manufacturer's instructions outlined in the above mentioned product sheet sub-category IIA. […] The arrays were analyzed using a Fuji FLA-5100 UV scanner at the 532 nm for the Cy3 dye and 635 nm for the Cy5 dye. […]
The evaluation of changes in protein concentration due to the presence of Q10 was evaluated through the utilization of antibody microarray methods. […]
Once data sets were collected for all arrays, the data was scrutinized against three major parameters. […] An evaluation of the positive and negative Cy3/Cy5 data (included as controls on the chip) and a visual inspection of the spectral density for a given spot it was determined that and array data point with a spectral density less than 10 was approaching the background level and deemed statistically irrelevant and removed from the data series. […]

[2] = tested on: NCIES0808 cells; assay: Western blot analysis; assay type: cell-based, human
Procedure: Cells were grown and treated with CoQ10 at 50 uM and 100 uM, along with the proper controls. The total cell lysates (as prepared above) were processed and evaluated by Western blot analysis. Proteins from each treatment group were resolved on SDS-PAGE and transferred onto PVDF membranes. They were then hybridized with antibodies.
Either 5 or 10 μg of protein was assayed per sample by immunoblotting. Proteins were separated on 10-20% Tris-HCl gels or 4-12% Bis-Tris gels, transferred via electrophoresis to PVDF membranes and blocked using a 5% GE/Amersham ECF blocker and TBST solution prior to incubation with primary antibodies. The primary antibodies were incubated overnight at 4 degrees C. in a 5% BSA and TBST solution. Secondary antibodies were incubated for one hour at room temperature. All antibodies were purchased from commercial vendors. Antibodies were used at the manufacturers' recommended dilution, with the control βActin at a dilution of 1:5000. Blots were developed using GE/Amersham ECF reagent, and results were quantified using the Fuji FL-5100 laser scanner and Bio-Rad Quantity One densitometry analysis software. All blots were also probed for and normalized to their respective βActin expression.
NCIES0808 cells treated for 24 hours with 50 or 100 μM Q10 were subjected to Western blot analysis and were analyzed to identify protein-level changes relative to the control media samples.
Protein obtained from the treated cells was evaluated by Western blot analysis against an antibody for Angiotensin-converting enzyme (ACE) (FIG. 4A), an antibody for Caspase 3 (FIG. 4B), an antibody for GARS (FIG. 4C), an antibody for Matrix Metalloproteinase 6 (MMP-6) (FIG. 4D) and a series of antibodies for Neurolysin (NLN) (FIGS. 4E-F).

[3] = rats, oral; cited from earlier work
[4] = 24 hours with 50 or 100 μM Q10, relative to control media

## Coenzyme Q10 [CoQ10]
[1]; ES0808 cell line, compared to baseline
  Expression of CBP/p300: increase
[1]; NCIES 0808 cells in response to CoQ10
  Decrease in expression (value = protein), discussion list: HDAC2 and HDAC4 and mTOR
[1]; treatment with 100 μM CoQ10
  FOXO1a expression: up regulated
[2]; 24 hours of treatment with 100 μM Q10
  Caspase 3 protein level by Western blot: marked downregulation
[2]; [4]
  Angiotensin-converting enzyme (ACE) protein level by Western analysis: downregulated
  Caspase 3 protein level by Western analysis: downregulated
  GARS protein level by Western analysis: downregulated
  Matrix Metalloproteinase 6 protein level by Western analysis: downregulated
  Neurolysin protein level by Western analysis: downregulated
[3]
  Fraction of orally-administered CoQ10 absorbed: 2-3%
